From ChEMBL document CHEMBL3046390, “Multifunctionalised benzoxazinones in the systems Oryza sativa-Echinochloa crus-galli and Triticum aestivum-Avena fatua as natural-product-based herbicide leads” (Pest Manag Sci, 2010)
pIC50: −log10 of the molar value. Calls of active or inactive are those of the source. No cut-off for these calls is given here.

Assays:
[1] = Selectivity idex, ratio of IC50 for root elongation in Oryza sativa to IC50 for root elongation in Echinochloa crus-galli
[2] = tested on: Triticum aestivum; experiment: Phytotoxicity against Triticum aestivum (wheat) assessed as inhibition of seed germination at 10 uM to 1 mM after 5 days relative to control; assay type: organism-based; conditions: in vivo, 120 h
[3] = tested on: Oryza sativa; experiment: Phytotoxicity against Oryza sativa (rice) assessed as inhibition of seed germination at 10 uM to 1 mM after 7 days relative to control; assay type: organism-based; conditions: in vivo, 168 h
[4] = Selectivity idex, ratio of IC50 for root elongation in Triticum aestivum to IC50 for root elongation in Avena fatua
[5] = tested on: Triticum aestivum; experiment: Phytotoxicity against Triticum aestivum (wheat) assessed as inhibition of root elongation after 5 days relative to control; assay type: organism-based; conditions: 120 h
[6] = tested on: Avena fatua; experiment: Herbicidal activity against Avena fatua assessed as inhibition of shoot length at 0.05 uM to 1 mM after 5 days relative to control; assay type: functional, organism-based
[7] = tested on: Avena fatua; experiment: Herbicidal activity against Avena fatua assessed as inhibition of root length after 5 days relative to control; assay type: functional, organism-based; conditions: 120 h
[8] = tested on: Avena fatua; experiment: Herbicidal activity against Avena fatua assessed as inhibition of seed germination at 0.05 uM to 1 mM after 5 days relative to control; assay type: functional, organism-based
[9] = tested on: Echinochloa crus-galli; experiment: Herbicidal activity against Echinochloa crus-galli (barnyard grass) assessed as inhibition of root length after 5 days relative to control; assay type: functional, organism-based; conditions: 120 h
[10] = tested on: Echinochloa crus-galli; experiment: Herbicidal activity against Echinochloa crus-galli (barnyard grass) assessed as inhibition of shoot length at 0.05 uM to 1 mM after 5 days relative to control; assay type: functional, organism-based
[11] = tested on: Echinochloa crus-galli; experiment: Herbicidal activity against Echinochloa crus-galli (barnyard grass) assessed as inhibition of seed germination at 0.05 uM to 1 mM after 5 days relative to control; assay type: functional, organism-based
[12] = tested on: Oryza sativa; experiment: Phytotoxicity against Oryza sativa (rice) assessed as inhibition of root elongation after 7 days relative to control; assay type: organism-based; conditions: 168 h
[13] = Phytotoxicity against Triticum aestivum (wheat) assessed as inhibition of root elongation at 114 uM after 5 days relative to control; assay type: organism-based; conditions: in vivo
[14] = tested on: Avena fatua; experiment: Herbicidal activity against Avena fatua assessed as inhibition of root elongation at 114 uM after 5 days relative to control; assay type: functional; conditions: 120 h
[15] = tested on: Echinochloa crus-galli; experiment: Herbicidal activity against Echinochloa crus-galli (barnyard grass) assessed as inhibition of root elongation at 52 uM after 5 days relative to control; assay type: functional; conditions: 120 h
[16] = Phytotoxicity against Oryza sativa (rice) assessed as inhibition of root elongation at 52 uM after 7 days relative to control; assay type: organism-based; conditions: in vivo
[17] = Phytotoxicity against Triticum aestivum (wheat) assessed as inhibition of root elongation at 6 uM after 5 days relative to control; assay type: organism-based; conditions: in vivo
[18] = tested on: Avena fatua; experiment: Herbicidal activity against Avena fatua assessed as inhibition of root elongation at 6 uM after 5 days relative to control; assay type: functional; conditions: 120 h
[19] = tested on: Echinochloa crus-galli; experiment: Ratio of Contanil IC50 to compound IC50 for root elongation in Echinochloa crus-galli (barnyard grass); assay type: functional

SMILES	Ratio IC50 [1]	Activity [2]	Activity [3]	Ratio IC50 [4]	pIC50 [5]	inhibition [6]	pIC50 [7]	inhibition [8]	pIC50 [9]	inhibition [10]	inhibition [11]	pIC50 [12]	inhibition at 120 h, 114 µM [13]	inhibition at 114 µM [14]	inhibition at 52 µM [15]	inhibition at 168 h, 52 µM [16]	inhibition at 120 h, 6 µM [17]	inhibition at 6 µM [18]	Ratio IC50 [19]
CCC(=O)Nc1ccc(Cl)c(Cl)c1 [PROPANIL]	1.87	Non-toxic	Non-toxic	–	–	–	–	–	–	–	–	–	–	–	–	–	–	–	–
CCC1Oc2ccc(F)cc2N(O)C1=O [6-F-2-Et-D-DIBOA]	0.58	Non-toxic	Non-toxic	2.59	4.20	Active	4.61	Active	4.60	Active	Active	4.82	–	–	–	–	–	–	–
CCC1Oc2ccc(Cl)cc2N(O)C1=O [6-Cl-2-Et-D-DIBOA]	0.07	Non-toxic	Non-toxic	0.28	3.89	Active	3.33	Active	3.08	Active	Active	4.25	–	–	–	–	–	–	–
O=C1C(c2ccccc2)Oc2c(Cl)cccc2N1O [8-Cl-2-Ph-D-DIBOA]	3.51	Non-toxic	Non-toxic	1.75	3.58	Active	3.82	Active	3.96	Active	Active	3.42	–	–	–	–	–	–	–
CCCCC(=O)ON1C(=O)COc2ccc(Cl)cc21 [6-Cl-4-Val-D-DIBOA]	0.16	Non-toxic	Non-toxic	7.52	4.57	Active	5.45	Active	4.85	Active	Active	5.70	–	–	–	–	–	–	–
CCC1Oc2c(Cl)cccc2N(O)C1=O [8-Cl-2-Et-D-DIBOA]	2.11	Non-toxic	Non-toxic	2.25	3.46	Active	3.81	Active	3.84	Active	Active	3.52	–	–	–	–	–	–	–
O=C1C(c2ccccc2)Oc2ccc(Cl)cc2N1O [6-Cl-2-Ph-D-DIBOA]	10.5	Non-toxic	Non-toxic	3.51	3.16	Active	3.71	Active	4.03	Active	Active	3.00	–	–	–	–	–	–	–
CCCC1Oc2ccc(Cl)cc2N(O)C1=O [6-Cl-2-Pr-D-DIBOA]	1.19	Non-toxic	Non-toxic	3.82	3.33	Active	3.91	Active	3.88	Active	Active	3.81	–	–	–	–	–	–	–
CCCCC(=O)ON1C(=O)COc2c(Cl)cccc21	11.1	Non-toxic	Non-toxic	14.4	2.79	Active	3.94	Active	4.19	Active	Active	3.15	18%	70%	–	–	–	–	–
CCC(=O)ON1C(=O)COc2c(Cl)cccc21 [8-Cl-4-Pr-D-DIBOA]	16.6	Non-toxic	Non-toxic	4.06	2.89	Active	3.49	Active	4.28	Active	Active	3.07	–	–	70%	8%	–	–	–
O=C1C(c2ccccc2)Oc2ccc(F)cc2N1O [6-F-2-Ph-D-DIBOA]	5.86	Non-toxic	Non-toxic	3.65	3.19	Active	3.75	Active	3.68	Active	Active	2.91	–	–	–	–	–	–	–
CCCC1Oc2c(Cl)cccc2N(O)C1=O [8-Cl-2-Pr-D-DIBOA]	7.44	Non-toxic	Non-toxic	5.37	3.41	Active	4.14	Active	4.08	Active	Active	3.21	–	–	–	–	–	–	–
CCC(=O)ON1C(=O)COc2ccc(Cl)cc21	0.2	Non-toxic	Non-toxic	2.42	4.33	Active	4.72	Active	4.85	Active	Active	5.52	–	–	–	–	–	–	–
CCC(=O)ON1C(=O)COc2ccc(F)cc21 [6F-4Pr-D-DIBOA]	0.36	Non-toxic	Non-toxic	13.2	4.09	Active	5.21	Active	5.05	Active	Active	5.52	–	–	–	–	25%	70%	12
CCCCC(=O)ON1C(=O)COc2ccc(F)cc21 [6-F-4-Val-D-DIBOA]	0.78	Non-toxic	Non-toxic	8.92	4.23	Active	5.19	Active	5.10	Active	Active	5.22	–	–	–	–	–	–	12
CCCC1Oc2ccc(F)cc2N(O)C1=O (stereo unspecified)	1.85	Non-toxic	Non-toxic	4.78	3.12	Active	3.80	Active	3.74	Active	Active	3.47	–	–	–	–	–	–	–
